Patent publication US8008329B2 (Dong Wha Pharmaceutical Co., Ltd., priority 2008, dated 2011)
Marks after values point to notes of the source that are not given here.

Test system: osteoclast differentiation
Assay: Osteoclast differentiation in co-culture of mouse bone marrow cells and ST2 cells, TRAP staining (Examples 8-9)
Type: cell-based
Details: for % number of osteoclast (vs. solvent control group): day 7; for activity at 0.1 µM: Mus musculus, Osteoclast, 168 h, day 7, read-out: % number of osteoclast (vs. solvent control group)
Method in brief: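 Bone marrow cells from 6-8-week male ddY mice were co-cultured with ST2 stromal cells under 10^−8 M vitamin D3 and 10^−8 M dexamethasone, with compounds at 0.1 μM final (0.1% DMSO control), refreshed on days 3 and 5. On day 7, TRAP-positive osteoclasts with ≥6 nuclei were counted and expressed as % of solvent control (n=4).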

[1] = Combination treatment (alendronic acid + compounds), 0.1 μM each
[2] = Combination treatment (risedronic acid + compounds), 0.1 μM each
[3] = Individual treatment (compounds), 0.1 μM

SMILES | % number of osteoclast (vs. solvent control group) [1] | % number of osteoclast (vs. solvent control group) [2] | activity at 0.1 µM [3] | % number of osteoclast (vs. solvent control group) [3]
Cc1nc(-c2ccc(OCCCCCOc3ccc(C(=N)NO)cc3)cc2)c(CN2CCN(C)CC2)s1 [Compound 294, N-hydroxy-4-(5-{4-[2-methyl-5-(4-methyl-piperazin-1-ylmethyl)-thiazol-4-yl]-phenoxy}-pentyloxy)-benzamidine] | 13 ± 2.4^ab % | 9 ± 2.7^ac % | 27 ± 4.5% | –
Cc1nc(-c2ccc(OCCCCCOc3ccc(C(=N)NO)cc3)cc2)c(CNC2CC2)s1 [Compound 307, N-hydroxy-4-{5-[4-(5-cyclopropylaminomethyl-2-methyl-thiazol-4-yl)-phenoxy]-pentyloxy}-benzamidine] | 30 ± 3.0^b % | 16 ± 4.8^ac % | 43 ± 8.9% | –
Cc1nc(-c2ccc(OCCCCCOc3ccc(C(=N)NO)cc3)cc2)c(CN2CCOCC2)s1 [Compound 293, N-hydroxy-4-{5-[4-(2-methyl-5-morpholin-4-ylmethyl-thiazol-4-yl)-phenoxy]-pentyloxy}-benzamidine] | 15 ± 2.6^b % | 11 ± 2.6^c % | 36 ± 10% | –
CCCN1CCC(c2nc(-c3ccc(OCCCCCOc4ccc(C(=N)NO)cc4)cc3)c(CC3CCCC3)s2)CC1 [Compound 68, N-hydroxy-4-{5-[4-(5-cyclopentylmethyl-2-(1-propyl-piperidin-4-yl)-1,3-thiazol-4-yl)phenoxy]pentyloxy}-benzamidine] | 14 ± 1.4^ab % | 8 ± 1.9^ac % | 42 ± 6.9% | –
CCCN1CCC(c2nc(-c3ccc(OCCCCCOc4ccc(C(=N)NO)cc4)cc3)c(C)s2)CC1 [Compound 72, N-hydroxy-4-{5-[4-(5-methyl-2-(1-propyl-piperidin-4-yl)-1,3-thiazol-4-yl)phenoxy]pentyloxy}-benzamidine] | 30 ± 4.0^ab % | 12 ± 3.2^ac % | 63 ± 1.1% | –
Cc1sc(N2CCOCC2)nc1-c1ccc(OCCCCCOc2ccc(C(=N)NO)cc2)cc1 [Compound 165, N-hydroxy-4-{5-[4-(5-methyl-2-morpholino-1,3-thiazol-4-yl)phenoxy]pentyloxy}-benzamidine] | 29 ± 7.5^ab % | 30 ± 3.1^ac % | 75 ± 3.8% | –
N=C(NO)c1ccc(OCCCCCOc2ccc(-c3nc(-c4cccnc4)sc3CCCl)cc2)cc1 [Compound 80, N-hydroxy-4-{5-[4-(5-(2-chloroethyl)-2-(pyridin-3-yl)-1,3-thiazol-4-yl)phenoxy]pentyloxy}-benzamidine] | 42 ± 9.9^b % | 38 ± 3.7^ac % | 65 ± 1.4% | –
Cc1nc(-c2ccc(OCCCCCOc3ccc(C(=N)NO)cc3)cc2)c(CN2CCCC2)s1 [Compound 304, N-hydroxy-4-{5-[4-(2-methyl-5-pyrolidin-1-ylmethyl-thiazol-4-yl)-phenoxy]-pentyloxy}-benzamidine] | 27 ± 6.4^ab % | 16 ± 4.5^ac % | – | 54 ± 6.4%
CCc1sc(NC(=O)c2ccncc2)nc1-c1ccc(OCCCCCOc2ccc(C(=N)NO)cc2)cc1 [Compound 100, N-hydroxy-4-{5-[4-(5-ethyl-2-(4-pyridylcarbonyl)amino-1,3-thiazol-4-yl)phenoxy]pentyloxy}-benzamidine] | 14 ± 6.9^ab % | 12 ± 3.0^ac % | 46 ± 8.4% | –
CCCCCc1nc(-c2ccc(OCCCCCOc3ccc(C(=N)NO)cc3)cc2)cs1 [Compound 9, N-hydroxy-4-{5-[4-(2-pentyl-1,3-thiazol-4-yl)phenoxy]pentyloxy}-benzamidine] | 52 ± 15.8% | 43 ± 2.6^ac % | 64 ± 3.4% | –
Cc1nc(-c2ccc(OCc3cccc(COc4ccc(C(=N)NO)cc4)c3)cc2)c(C(C)C)s1 [Compound 209, N-hydroxy-4-{3-[4-(5-isopropyl-2-methyl-thiazol-4-yl)-phenoxymethyl]-benzyloxy}-benzamidine] | 41 ± 12.0^ab % | 50 ± 6.1^ac % | 74 ± 7.4% | –
CCNc1nc(-c2ccc(OCCCCCOc3ccc(C(=N)NO)cc3)cc2)c(CC)s1 [Compound 97, N-hydroxy-4-{5-[4-(5-ethyl-2-ethylamino-1,3-thiazol-4-yl)phenoxy]pentyloxy}-benzamidine] | 30 ± 5.7^ab % | 13 ± 4.3^ac % | 57 ± 5.2% | –
CCc1sc(N2CCN(C)CC2)nc1-c1ccc(OCCCCCOc2ccc(C(=N)NO)cc2)cc1 [Compound 174, N-hydroxy-4-{5-(4-[5-ethyl-2-(4-methylpiperazino)-1,3-thiazol-4-yl]phenoxy)pentyloxy}-benzamidine] | 46 ± 2.6^ab % | 35 ± 5.1^ac % | 70 ± 2.5% | –
COCCN(CCOC)c1nc(-c2ccc(OCCCCCOc3ccc(C(=N)NO)cc3)cc2)c(C)s1 [Compound 122, N-hydroxy-4-[5-(4-{2-[bis-(2-methoxyethyl) -amino]-5-methyl-1,3-thiazol-4-yl}phenoxy)pentyloxy]-benzamidine] | 37 ± 8.1^ab % | 49 ± 7.3^ac % | 71 ± 4.4% | –
CCCNc1nc(-c2ccc(OCCCCCOc3ccc(C(=N)NO)cc3)cc2)c(C)s1 [Compound 88, N-hydroxy-4-{5-[4-(5-methyl-2-propylamino-1,3-thiazol-4-yl)phenoxy]pentyloxy}-benzamidine] | 61 ± 11.7% | 29 ± 4.7^ac % | 63 ± 7.6% | –
N=C(NO)c1ccc(OCCCCCOc2ccc(-c3nc(N(CCN4CCOCC4)Cc4ccccc4)sc3CCN3CCOCC3)cc2)cc1 [Compound 269, N-hydroxy-4-(5-{4-[2-[benzyl-(2-morpholin-4-yl-ethyl)-amino]-5-(2-morpholin-4-yl-ethyl)-thiazol-4-yl]-phenoxy}-pentyloxy)-benzamidine] | 23 ± 5.2^ab % | 17 ± 4.4^ac % | 38 ± 3.7% | –
CN(C)c1nc(-c2ccc(OCCCCCOc3ccc(C(=N)NO)cc3)cc2)c(CCN2CCOCC2)s1 [Compound 266, N-hydroxy-4-(5-{4-[2-dimethylamino-5-(2-morpholin-4-yl-ethyl)-thiazol-4-yl]-phenoxy}-pentyloxy)-benzamidine] | 36 ± 9.6^ab % | 26 ± 4.3^ac % | 64 ± 4% | –
Cc1nc(-c2ccc(OCCCCCN(C)c3ccc(C(=N)NO)cc3)cc2)c(C(C)C)s1 [Compound 183, N-hydroxy-4-({5-[4-(5-isopropyl-2-methyl-1,3-thiazol-4-yl)-phenoxy]-pentyl}-methyl-amino)-benzamidine] | 26 ± 6.1^ab % | 37 ± 5.3^ac % | 66 ± 7.4% | –
